Laboratory results published in ChEMBL document CHEMBL5678818, “Discovery of potent SOS1 inhibitors that block RAS activation via disruption of the RAS-SOS1 interaction” (Proc Natl Acad Sci U S A, 2019).

Tests used:
Calu-1 = experiment: Antiproliferative activity against human Calu-1 cells assessed as inhibition of cell viability incubated for 72 hrs by Cell Titer Glo assay; assay type: functional, cell-based; conditions: Calu-1, 72 h
[1] = target: T1, NUAK family SNF1-like kinase 1 (Homo sapiens) (UniProt O60285); experiment: Inhibition of ARK5 (unknown origin) assessed as residual activity at 1000 nM by KINOMEscan analysis relative to control
T1 sequence (whole entry): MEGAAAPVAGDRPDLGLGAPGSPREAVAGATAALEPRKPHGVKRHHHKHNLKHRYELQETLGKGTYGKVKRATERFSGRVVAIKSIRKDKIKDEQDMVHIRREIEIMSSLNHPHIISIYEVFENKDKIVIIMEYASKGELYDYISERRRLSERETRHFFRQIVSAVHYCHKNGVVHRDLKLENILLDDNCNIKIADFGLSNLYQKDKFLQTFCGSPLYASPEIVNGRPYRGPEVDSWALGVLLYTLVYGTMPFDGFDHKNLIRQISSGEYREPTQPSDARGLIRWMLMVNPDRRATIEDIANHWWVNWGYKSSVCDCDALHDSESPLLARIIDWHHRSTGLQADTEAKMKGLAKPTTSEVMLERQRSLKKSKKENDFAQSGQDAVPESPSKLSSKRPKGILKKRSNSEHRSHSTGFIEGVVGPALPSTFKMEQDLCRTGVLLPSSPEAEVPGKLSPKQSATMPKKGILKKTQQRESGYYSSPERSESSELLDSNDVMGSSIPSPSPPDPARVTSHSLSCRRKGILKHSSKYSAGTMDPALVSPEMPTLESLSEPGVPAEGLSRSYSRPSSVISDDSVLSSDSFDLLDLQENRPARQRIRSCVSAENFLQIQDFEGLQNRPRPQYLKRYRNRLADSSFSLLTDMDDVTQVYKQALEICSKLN

[2] = target: Bone morphogenetic protein receptor type-1A (Homo sapiens) (UniProt P36894); experiment: Inhibition of BMPR1A (unknown origin) assessed as residual activity at 1000 nM by KINOMEscan analysis relative to control
[3] = target: Ephrin type-A receptor 4 (Homo sapiens) (UniProt P54764); experiment: Inhibition of EPHA4 (unknown origin) assessed as residual activity at 1000 nM by KINOMEscan analysis relative to control
[4] = target: T2, Homeodomain-interacting protein kinase 4 (Homo sapiens) (UniProt Q8NE63); experiment: Inhibition of HIPK4 (unknown origin) assessed as residual activity at 1000 nM by KINOMEscan analysis relative to control
T2 sequence (whole entry): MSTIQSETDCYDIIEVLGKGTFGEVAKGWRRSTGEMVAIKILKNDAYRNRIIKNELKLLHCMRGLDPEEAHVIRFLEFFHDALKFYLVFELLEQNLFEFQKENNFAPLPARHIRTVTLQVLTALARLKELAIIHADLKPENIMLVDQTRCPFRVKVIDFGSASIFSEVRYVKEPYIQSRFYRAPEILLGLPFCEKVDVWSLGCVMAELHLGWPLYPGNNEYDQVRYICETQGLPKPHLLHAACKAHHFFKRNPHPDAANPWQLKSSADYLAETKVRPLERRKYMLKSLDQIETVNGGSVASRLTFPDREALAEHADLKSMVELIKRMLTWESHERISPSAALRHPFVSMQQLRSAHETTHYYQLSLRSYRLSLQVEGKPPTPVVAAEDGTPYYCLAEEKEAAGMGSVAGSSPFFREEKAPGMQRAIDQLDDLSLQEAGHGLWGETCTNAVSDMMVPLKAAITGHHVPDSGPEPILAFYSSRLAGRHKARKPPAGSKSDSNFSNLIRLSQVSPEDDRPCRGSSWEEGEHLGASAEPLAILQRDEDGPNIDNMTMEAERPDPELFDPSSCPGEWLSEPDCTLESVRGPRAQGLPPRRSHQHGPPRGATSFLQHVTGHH

[5] = target: Mitogen-activated protein kinase kinase kinase kinase 1 (Homo sapiens) (UniProt Q92918); experiment: Inhibition of HPK1 (unknown origin) assessed as residual activity at 1000 nM by KINOMEscan analysis relative to control
[6] = target: Tyrosine-protein kinase JAK1 (Homo sapiens) (UniProt P23458); experiment: Inhibition of JAK1 JH1 catalytic domain (unknown origin) assessed as residual activity at 1000 nM by KINOMEscan analysis relative to control
Homo sapiens = species: Homo sapiens; experiment: Inhibition of JNK3 (unknown origin) assessed as residual activity at 1000 nM by KINOMEscan analysis relative to control
[7] = target: Phosphatidylinositol 4-kinase beta (Homo sapiens) (UniProt Q9UBF8); experiment: Inhibition of PIK4CB (unknown origin) assessed as residual activity at 1000 nM by KINOMEscan analysis relative to control
[8] = target: Protein kinase C eta type (Homo sapiens) (UniProt P24723); experiment: Inhibition of PRKCH (unknown origin) assessed as residual activity at 1000 nM by KINOMEscan analysis relative to control
[9] = target: T3, Serine/threonine-protein kinase RIO3 (Homo sapiens) (UniProt O14730); experiment: Inhibition of RIOK3 (unknown origin) assessed as residual activity at 1000 nM by KINOMEscan analysis relative to control
T3 sequence (whole entry): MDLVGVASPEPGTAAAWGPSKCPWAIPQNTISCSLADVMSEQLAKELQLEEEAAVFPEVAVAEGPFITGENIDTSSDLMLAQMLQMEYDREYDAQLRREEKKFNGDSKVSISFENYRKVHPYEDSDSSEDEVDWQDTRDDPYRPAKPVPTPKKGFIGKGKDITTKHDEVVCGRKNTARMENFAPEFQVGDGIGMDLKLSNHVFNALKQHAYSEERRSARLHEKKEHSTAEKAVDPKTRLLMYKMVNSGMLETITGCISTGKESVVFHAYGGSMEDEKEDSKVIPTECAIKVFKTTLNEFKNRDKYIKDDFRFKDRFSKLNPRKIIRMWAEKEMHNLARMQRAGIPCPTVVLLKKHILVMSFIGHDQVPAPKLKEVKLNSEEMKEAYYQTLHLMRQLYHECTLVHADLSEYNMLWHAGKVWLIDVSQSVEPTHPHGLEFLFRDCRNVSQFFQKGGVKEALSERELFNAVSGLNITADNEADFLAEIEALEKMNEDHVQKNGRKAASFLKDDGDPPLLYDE

Chain of Protein kinase C eta type (Homo sapiens) (P24723 whole entry): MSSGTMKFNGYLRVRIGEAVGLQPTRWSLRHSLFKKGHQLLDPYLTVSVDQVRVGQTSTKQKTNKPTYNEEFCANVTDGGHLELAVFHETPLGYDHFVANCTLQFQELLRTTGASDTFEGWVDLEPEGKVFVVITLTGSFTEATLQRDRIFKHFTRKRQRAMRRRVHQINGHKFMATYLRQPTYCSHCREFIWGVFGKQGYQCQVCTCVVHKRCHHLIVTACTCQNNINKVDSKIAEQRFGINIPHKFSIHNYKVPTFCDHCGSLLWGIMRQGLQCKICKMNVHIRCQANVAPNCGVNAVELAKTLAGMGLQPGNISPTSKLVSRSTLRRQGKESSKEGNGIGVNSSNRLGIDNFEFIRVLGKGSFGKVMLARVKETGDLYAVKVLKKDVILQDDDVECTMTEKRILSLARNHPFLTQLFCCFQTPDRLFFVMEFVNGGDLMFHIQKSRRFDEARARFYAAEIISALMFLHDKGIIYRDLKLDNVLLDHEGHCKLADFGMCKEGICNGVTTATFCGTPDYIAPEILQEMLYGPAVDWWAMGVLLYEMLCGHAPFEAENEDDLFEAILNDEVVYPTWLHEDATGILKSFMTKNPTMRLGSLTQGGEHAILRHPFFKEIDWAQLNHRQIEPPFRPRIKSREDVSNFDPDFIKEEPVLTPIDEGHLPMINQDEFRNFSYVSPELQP
Chain of Ephrin type-A receptor 4 (Homo sapiens) (P54764 whole entry): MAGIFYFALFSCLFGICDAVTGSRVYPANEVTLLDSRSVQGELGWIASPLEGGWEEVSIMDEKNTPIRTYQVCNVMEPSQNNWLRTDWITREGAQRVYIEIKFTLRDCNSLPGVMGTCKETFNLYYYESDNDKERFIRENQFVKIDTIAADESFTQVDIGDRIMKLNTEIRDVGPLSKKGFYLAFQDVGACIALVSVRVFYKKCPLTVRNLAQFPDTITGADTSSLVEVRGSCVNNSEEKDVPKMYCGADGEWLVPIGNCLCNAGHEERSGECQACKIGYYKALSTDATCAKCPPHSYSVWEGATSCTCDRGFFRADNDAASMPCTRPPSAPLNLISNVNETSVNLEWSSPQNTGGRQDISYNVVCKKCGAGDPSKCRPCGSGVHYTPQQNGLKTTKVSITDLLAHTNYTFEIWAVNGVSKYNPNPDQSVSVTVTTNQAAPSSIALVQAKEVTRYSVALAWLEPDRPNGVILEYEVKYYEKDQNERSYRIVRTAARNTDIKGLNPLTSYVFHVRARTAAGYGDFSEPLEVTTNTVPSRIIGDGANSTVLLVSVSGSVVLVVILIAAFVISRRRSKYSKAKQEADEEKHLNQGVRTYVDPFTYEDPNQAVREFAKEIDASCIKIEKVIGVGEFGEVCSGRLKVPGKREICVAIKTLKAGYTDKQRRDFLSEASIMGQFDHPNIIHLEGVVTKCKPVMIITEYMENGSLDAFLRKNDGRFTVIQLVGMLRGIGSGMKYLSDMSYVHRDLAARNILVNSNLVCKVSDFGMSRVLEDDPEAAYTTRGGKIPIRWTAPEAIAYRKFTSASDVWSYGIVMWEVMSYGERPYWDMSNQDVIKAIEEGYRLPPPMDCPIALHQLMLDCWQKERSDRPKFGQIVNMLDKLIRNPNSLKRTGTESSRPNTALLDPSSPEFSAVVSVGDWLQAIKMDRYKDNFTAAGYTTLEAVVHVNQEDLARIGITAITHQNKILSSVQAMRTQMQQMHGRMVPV
Chain of Mitogen-activated protein kinase kinase kinase kinase 1 (Homo sapiens) (Q92918 whole entry, looked up, the tested form may be a part): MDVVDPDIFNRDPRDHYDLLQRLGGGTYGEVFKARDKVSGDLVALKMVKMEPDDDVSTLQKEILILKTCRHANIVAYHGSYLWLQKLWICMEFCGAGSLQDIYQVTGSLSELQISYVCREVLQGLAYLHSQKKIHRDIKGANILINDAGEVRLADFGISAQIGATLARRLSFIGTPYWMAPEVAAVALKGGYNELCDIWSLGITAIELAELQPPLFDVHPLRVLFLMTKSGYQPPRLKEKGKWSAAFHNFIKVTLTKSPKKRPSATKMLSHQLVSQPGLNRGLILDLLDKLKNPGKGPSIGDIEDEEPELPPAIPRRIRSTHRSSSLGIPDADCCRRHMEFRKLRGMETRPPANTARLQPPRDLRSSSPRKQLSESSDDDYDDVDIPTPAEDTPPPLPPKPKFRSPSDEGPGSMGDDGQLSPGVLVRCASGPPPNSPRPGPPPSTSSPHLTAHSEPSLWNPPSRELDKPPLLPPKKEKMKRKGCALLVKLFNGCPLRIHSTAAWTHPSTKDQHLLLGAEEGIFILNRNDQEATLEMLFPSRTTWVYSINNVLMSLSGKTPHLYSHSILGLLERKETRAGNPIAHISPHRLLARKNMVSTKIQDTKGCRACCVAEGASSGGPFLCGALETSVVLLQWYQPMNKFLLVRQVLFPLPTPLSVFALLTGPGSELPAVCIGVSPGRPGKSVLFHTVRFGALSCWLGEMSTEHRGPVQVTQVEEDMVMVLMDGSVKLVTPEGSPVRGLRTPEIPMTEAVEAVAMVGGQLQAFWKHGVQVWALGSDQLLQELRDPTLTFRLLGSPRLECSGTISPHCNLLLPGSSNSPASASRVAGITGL
Chain of Tyrosine-protein kinase JAK1 (Homo sapiens) (P23458 whole entry, the tested form may be a part): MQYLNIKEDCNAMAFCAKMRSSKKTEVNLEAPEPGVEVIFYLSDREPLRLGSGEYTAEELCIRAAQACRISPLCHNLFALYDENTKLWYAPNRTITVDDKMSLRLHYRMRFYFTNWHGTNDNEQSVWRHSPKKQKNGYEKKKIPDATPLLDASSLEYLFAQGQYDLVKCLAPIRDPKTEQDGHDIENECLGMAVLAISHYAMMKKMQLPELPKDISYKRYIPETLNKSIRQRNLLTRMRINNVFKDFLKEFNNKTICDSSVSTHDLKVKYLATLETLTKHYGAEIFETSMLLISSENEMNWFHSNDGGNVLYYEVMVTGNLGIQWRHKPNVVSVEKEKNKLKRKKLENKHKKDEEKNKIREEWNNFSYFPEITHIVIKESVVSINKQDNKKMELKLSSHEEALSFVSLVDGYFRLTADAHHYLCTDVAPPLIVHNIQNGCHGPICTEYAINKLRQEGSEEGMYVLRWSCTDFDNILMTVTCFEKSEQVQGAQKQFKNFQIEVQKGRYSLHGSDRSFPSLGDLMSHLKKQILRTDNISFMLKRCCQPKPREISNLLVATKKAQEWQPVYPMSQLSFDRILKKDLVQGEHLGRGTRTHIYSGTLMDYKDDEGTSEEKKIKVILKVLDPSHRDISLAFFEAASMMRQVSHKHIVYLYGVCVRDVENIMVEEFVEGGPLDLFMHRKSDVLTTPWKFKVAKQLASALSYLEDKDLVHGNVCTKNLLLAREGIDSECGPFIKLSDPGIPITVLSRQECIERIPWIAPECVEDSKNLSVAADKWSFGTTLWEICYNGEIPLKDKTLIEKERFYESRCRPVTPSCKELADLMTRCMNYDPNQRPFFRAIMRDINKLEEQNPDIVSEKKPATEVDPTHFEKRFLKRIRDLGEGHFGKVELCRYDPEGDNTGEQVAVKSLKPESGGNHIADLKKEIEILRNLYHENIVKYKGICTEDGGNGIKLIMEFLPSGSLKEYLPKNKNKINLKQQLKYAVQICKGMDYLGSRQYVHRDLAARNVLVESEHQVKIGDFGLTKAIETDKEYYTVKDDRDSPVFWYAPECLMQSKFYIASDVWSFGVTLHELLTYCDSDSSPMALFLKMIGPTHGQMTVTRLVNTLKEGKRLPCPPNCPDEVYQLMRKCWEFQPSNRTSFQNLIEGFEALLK
Chain of Phosphatidylinositol 4-kinase beta (Homo sapiens) (Q9UBF8 2-816 limits assumed): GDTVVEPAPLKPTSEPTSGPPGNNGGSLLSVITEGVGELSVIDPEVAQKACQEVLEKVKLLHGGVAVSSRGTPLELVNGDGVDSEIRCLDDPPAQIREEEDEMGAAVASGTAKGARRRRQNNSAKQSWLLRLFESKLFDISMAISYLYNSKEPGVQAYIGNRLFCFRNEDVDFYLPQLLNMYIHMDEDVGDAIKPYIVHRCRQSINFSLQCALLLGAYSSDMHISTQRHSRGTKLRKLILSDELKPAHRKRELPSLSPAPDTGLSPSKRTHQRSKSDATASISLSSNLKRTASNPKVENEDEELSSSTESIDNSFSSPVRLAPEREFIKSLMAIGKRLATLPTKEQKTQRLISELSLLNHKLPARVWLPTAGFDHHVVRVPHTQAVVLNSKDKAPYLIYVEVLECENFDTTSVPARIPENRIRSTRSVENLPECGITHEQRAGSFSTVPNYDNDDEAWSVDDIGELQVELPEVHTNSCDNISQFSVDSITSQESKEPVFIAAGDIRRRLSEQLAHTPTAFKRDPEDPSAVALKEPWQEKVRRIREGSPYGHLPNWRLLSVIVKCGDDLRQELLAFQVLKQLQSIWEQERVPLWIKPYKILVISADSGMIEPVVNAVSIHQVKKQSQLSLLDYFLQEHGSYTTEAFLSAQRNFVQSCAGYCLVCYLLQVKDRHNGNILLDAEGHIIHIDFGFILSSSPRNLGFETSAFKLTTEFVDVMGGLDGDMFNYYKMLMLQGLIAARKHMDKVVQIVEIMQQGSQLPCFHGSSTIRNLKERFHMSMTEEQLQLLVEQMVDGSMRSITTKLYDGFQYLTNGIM
Chain of Bone morphogenetic protein receptor type-1A (Homo sapiens) (P36894 whole entry): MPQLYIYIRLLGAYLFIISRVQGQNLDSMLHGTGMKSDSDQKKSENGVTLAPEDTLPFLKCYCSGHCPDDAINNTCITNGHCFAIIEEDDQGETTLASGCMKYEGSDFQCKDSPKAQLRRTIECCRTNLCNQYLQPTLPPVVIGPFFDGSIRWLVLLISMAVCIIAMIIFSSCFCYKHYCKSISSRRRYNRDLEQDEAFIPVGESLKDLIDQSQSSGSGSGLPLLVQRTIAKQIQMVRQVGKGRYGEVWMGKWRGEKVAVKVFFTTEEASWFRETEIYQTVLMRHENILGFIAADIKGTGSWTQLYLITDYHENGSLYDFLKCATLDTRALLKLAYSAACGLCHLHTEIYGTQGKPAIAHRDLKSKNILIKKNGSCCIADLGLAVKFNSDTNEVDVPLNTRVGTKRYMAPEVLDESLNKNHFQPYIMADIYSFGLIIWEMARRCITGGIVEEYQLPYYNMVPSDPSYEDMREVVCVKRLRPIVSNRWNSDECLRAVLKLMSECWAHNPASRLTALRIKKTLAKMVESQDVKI

`CNCc1ccccc1-c1csc([C@@H](C)Nc2nc(C)nc3cc(OC)c(OC)cc23)c1` [BAY-293] was tested. Which IC50 (Calu-1) did it give?
Its IC50 is 3.19 µM.

Which results are given for `COc1cc2nc(C)nc(N[C@H](C)c3cccc(-c4cn[nH]c4)c3)c2cc1OC`?
Activity [1]: 100%; Activity [2]: 97%; Activity [3]: 96%; Activity [4]: 80%; Activity [5]: 97%; Activity [6]: 100%; Activity (Homo sapiens): 80%; Activity [7]: 69%; Activity [8]: 95%; Activity [9]: 88%; IC50 (Calu-1): 17 µM

With `COc1cc2ncnc(N[C@H](C)c3cccc4ccccc34)c2cc1OC` as the compound, how does the Activity [1] read?
Its Activity is 83%.

What about the Activity [2] of the same compound?
Its Activity is 100%.

What about the Activity [3] of the same compound?
The Activity was 95%.

What about the Activity [4] of the same compound?
Its Activity is 100%.

What about the Activity [5] of the same compound?
The Activity was 100%.

And the Activity [6]?
The Activity was 87%.

What about the Activity (Homo sapiens) of the same compound?
Its Activity is 97%.

What about the Activity [7] of the same compound?
The Activity was 82%.

And the Activity [8]?
The Activity was 100%.

What about the Activity [9] of the same compound?
The Activity was 83%.
